Experimental data published in patent US8435588B2, “High-potency sweetener composition with an anti-inflammatory agent and compositions sweetened therewith” (The Coca-Cola Company, priority 2005, dated 2013).

What was measured:
[1] = Rate of dissolution of rebaudioside A polymorph and amorphous forms in H2O; assay type: physicochemical
[2] = assay type: physicochemical
Protocol: A solution of rebaudioside A (>97% pure by HPLC ) was prepared in double distilled water (12.5 gm in 50 mL, 25% concentration) by stirring the mixture at 40° C. for 5 minutes. An amorphous form of rebaudioside A was formed by immediately using the clear solution for spray drying with the Lab-Plant spray drier SD-04 instrument (Lab-Plant Ltd., West Yorkshire, U.K.). The solution was fed through the feed pump into the nozzle atomizer which atomized it into a spray of droplets with the help of a constant flow of nitrogen/air.

[3] = Sensory evaluation of sweetness linger by expert panel; assay type: in vivo; design: key: 0: no sweetness linger; 1: very slight sweetness linger; 2: slight sweetness linger; 3: moderate sweetness linger; 4: moderately high sweetness linger; 5: high sweetness linger; details: for sweetness linger: scale 0-5; for Sweetness Linger rating (defined for controls of the protocol): sucrose, 500 ppm control sample, values defined as scale anchors
Protocol: Sensory evaluation of the samples prepared in Example Set G was carried out under the following protocol, similar to that described hereinabove. In this test protocol, none of the samples were swallowed. All samples were expectorated and the mouth was rinsed with water after the tasting. Immediately upon sensing maximal sweetness, the sample was expectorated, the mouth was rinsed with water and the rate of sweetness decay (“Sweetness Linger”) was measured, where attention was focused on the sweetness 3-4 min after the water rinse. After sample tasting was complete, a salty oyster cracker was chewed followed by a water rinse, and at least 5 minutes followed before tasting the next sample. The sweetness linger was rated by a panel of experts in the sensory evaluation of foods and beverages using the following scale: 0=no sweetness linger, 1=very slight sweetness linger, 2=slight sweetness linger, 3=moderate sweetness linger, 4=moderately high sweetness linger, 5=high sweetness linger.
The “Sweetness Linger” rating for sucrose observed by this protocol is defined as 0. The Sweetness Linger of a 500 ppm of EBA control sample is defined as 5. Experimental samples were tasted by the same protocol, always allowing sufficient time between samples to ensure re-equilibration of the sensory system. Re-tasting of control samples during the course of the experiment was allowed and encouraged.
The comparison taste test was performed between two controls and addition of sweet taste improving additive on the onset and/or sweetness linger.
Sweet taste improving compositions were combined with a EBA solution to determine their effect on sweetness linger. Screening of the initial sample, or further dilutions, allowed identification of concentrations which were just above-threshold, herein defined as “near-threshold concentrations.” The near-threshold additive concentrations, a 6- to 100-fold higher additive concentration (depending on the off-taste intensity), and a mid-level additive concentration (halfway between the near-threshold and higher additive concentration) were evaluated to determine the effect on sweetness linger of a REBA solution.
Formulations of a 500 ppm EBA in a phosphoric acid solution (75%) at a pH of 2.5 with phosphoric acid or a pH of 3.1 with citric acid and potassium citrate were prepared prior to the addition of the additives at the three levels of concentration.
Sensory evaluation using the protocol described in Example Set G then was used to evaluate the sweetness linger of the REBA solutions.

| Rate of dissolution in H2O at 25° C. [1] | SMILES | Sweetness Linger rating (defined for controls of the protocol) [3] | also measured |
| --- | --- | --- | --- |
| Intermediate (<30%/ %/5 minutes | C=C1C[C@@]23CC[C@H]4[C@@](C)(CCC[C@@]4(C)C(=O)O[C@@H]4O[C@H](CO)[C@@H](O)[C@H](O)[C@H]4O)[C@@H]2CC[C@]1(O[C@@H]1O[C@H](CO)[C@@H](O)[C@H](O[C@@H]2O[C@H](CO)[C@@H](O)[C@H](O)[C@H]2O)[C@H]1O[C@@H]1O[C@H](CO)[C@@H](O)[C@H](O)[C@H]1O)C3 [Form 2, rebaudioside A] | – | – |
| High (>30%/5 %/5 minutes | C=C1C[C@@]23CC[C@H]4[C@@](C)(CCC[C@@]4(C)C(=O)O[C@@H]4O[C@H](CO)[C@@H](O)[C@H](O)[C@H]4O)[C@@H]2CC[C@]1(O[C@@H]1O[C@H](CO)[C@@H](O)[C@H](O[C@@H]2O[C@H](CO)[C@@H](O)[C@H](O)[C@H]2O)[C@H]1O[C@@H]1O[C@H](CO)[C@@H](O)[C@H](O)[C@H]1O)C3 [Form 3, rebaudioside A] | – | – |

The next lines start with the molecule.

| SMILES | Rate of dissolution in H2O at 25° C. [1] | Sweetness Linger rating (defined for controls of the protocol) [3] | also measured |
| --- | --- | --- | --- |
| C=C1C[C@@]23CC[C@H]4[C@@](C)(CCC[C@@]4(C)C(=O)O[C@@H]4O[C@H](CO)[C@@H](O)[C@H](O)[C@H]4O)[C@@H]2CC[C@]1(O[C@@H]1O[C@H](CO)[C@@H](O)[C@H](O[C@@H]2O[C@H](CO)[C@@H](O)[C@H](O)[C@H]2O)[C@H]1O[C@@H]1O[C@H](CO)[C@@H](O)[C@H](O)[C@H]1O)C3 [Form 1, rebaudioside A] | Very low (<0.2%/ %/60 minutes | – | – |
| C=C1C[C@@]23CC[C@H]4[C@@](C)(CCC[C@@]4(C)C(=O)O[C@@H]4O[C@H](CO)[C@@H](O)[C@H](O)[C@H]4O)[C@@H]2CC[C@]1(O[C@@H]1O[C@H](CO)[C@@H](O)[C@H](O[C@@H]2O[C@H](CO)[C@@H](O)[C@H](O)[C@H]2O)[C@H]1O[C@@H]1O[C@H](CO)[C@@H](O)[C@H](O)[C@H]1O)C3 [Form 4, rebaudioside A] | High (>35.0%/ %/5 minutes | – | solubility in water at room temperature [2]: > 35.0% |
| C=C1C[C@@]23CC[C@H]4[C@@](C)(CCC[C@@]4(C)C(=O)O[C@@H]4O[C@H](CO)[C@@H](O)[C@H](O)[C@H]4O)[C@@H]2CC[C@]1(O[C@@H]1O[C@H](CO)[C@@H](O)[C@H](O[C@@H]2O[C@H](CO)[C@@H](O)[C@H](O)[C@H]2O)[C@H]1O[C@@H]1O[C@H](CO)[C@@H](O)[C@H](O)[C@H]1O)C3 [REBA, rebaudioside A] | – | 5 | sweetness linger ([3]; Example Set G: 400 ppm REBA in citric acid/potassium citrate composition equivalent to diet lemon-lime beverage, sugar control 8 g in 100 ml citrate buffer): 5; sweetness linger ([3]; Example Set H: 500 ppm REBA (H41: 360 ppm) in carbon-treated water, phosphoric acid (75%) to pH 2.4-2.5, sugar control 10 g in 100 ml): 5 |
| OC[C@H]1O[C@@](CO)(O[C@H]2O[C@H](CO)[C@@H](O)[C@H](O)[C@H]2O)[C@@H](O)[C@@H]1O [sugar, sucrose, reference compound] | – | 0 | – |
